Experimental data: patent US10246469B2, “Biaryl kinase inhibitors” (BRISTOL-MYERS SQUIBB COMPANY, priority 2015, dated 2019)

Target: T1, GST-Xa-hAAK1 (Homo sapiens, UniProt Q2M2I8)
T1 construct: GST (N); Factor Xa cleavage site (Xa) (internal); made in house
Assay: AAK1 Kinase Assay
Type: biochemical
Conditions: bacterially expressed GST-Xa-hAAK1 3.5 nM; ATP 22 μM; fluoresceinated peptide 1.5 μM; 3 hours at room temperature; Caliper LabChip 3000
Description: The assays were performed in U-bottom 384-well plates. The final assay volume was 30 μl prepared from 15 μl additions of enzyme and substrates (fluoresceinated peptide (5-FAM)-Aha-[…]-NH2 and ATP) and test compounds in assay buffer (10 mM Tris-HCL pH 7.4, 10 mM MgCl2, 0.01% Tween-20 and 1.0 mM DTT). The reactions were initiated by the combination of bacterially expressed, GST-Xa-hAAK1 with substrates and test compounds. The reactions were incubated at room temperature for 3 hours and terminated by adding 60 μl of 35 mM EDTA buffer to each sample. The reactions were analyzed on the Caliper LabChip 3000 (Caliper, Hopkinton, Mass.) by electrophoretic separation of the fluorescent substrate and phosphorylated product. […] The final concentration of reagents in the assays are ATP, 22 μM; (5-FAM)-Aha-[…]-NH2, 1.5 μM; GST-Xa-hAAK1, 3.5 nM; and DMSO, 1.6%. […] Compounds were dissolved at 10 mM in dimethylsulfoxide (DMSO) and evaluated at eleven concentrations. IC50 values were derived by non-linear regression analysis.

T1 sequence (Q2M2I8 whole entry): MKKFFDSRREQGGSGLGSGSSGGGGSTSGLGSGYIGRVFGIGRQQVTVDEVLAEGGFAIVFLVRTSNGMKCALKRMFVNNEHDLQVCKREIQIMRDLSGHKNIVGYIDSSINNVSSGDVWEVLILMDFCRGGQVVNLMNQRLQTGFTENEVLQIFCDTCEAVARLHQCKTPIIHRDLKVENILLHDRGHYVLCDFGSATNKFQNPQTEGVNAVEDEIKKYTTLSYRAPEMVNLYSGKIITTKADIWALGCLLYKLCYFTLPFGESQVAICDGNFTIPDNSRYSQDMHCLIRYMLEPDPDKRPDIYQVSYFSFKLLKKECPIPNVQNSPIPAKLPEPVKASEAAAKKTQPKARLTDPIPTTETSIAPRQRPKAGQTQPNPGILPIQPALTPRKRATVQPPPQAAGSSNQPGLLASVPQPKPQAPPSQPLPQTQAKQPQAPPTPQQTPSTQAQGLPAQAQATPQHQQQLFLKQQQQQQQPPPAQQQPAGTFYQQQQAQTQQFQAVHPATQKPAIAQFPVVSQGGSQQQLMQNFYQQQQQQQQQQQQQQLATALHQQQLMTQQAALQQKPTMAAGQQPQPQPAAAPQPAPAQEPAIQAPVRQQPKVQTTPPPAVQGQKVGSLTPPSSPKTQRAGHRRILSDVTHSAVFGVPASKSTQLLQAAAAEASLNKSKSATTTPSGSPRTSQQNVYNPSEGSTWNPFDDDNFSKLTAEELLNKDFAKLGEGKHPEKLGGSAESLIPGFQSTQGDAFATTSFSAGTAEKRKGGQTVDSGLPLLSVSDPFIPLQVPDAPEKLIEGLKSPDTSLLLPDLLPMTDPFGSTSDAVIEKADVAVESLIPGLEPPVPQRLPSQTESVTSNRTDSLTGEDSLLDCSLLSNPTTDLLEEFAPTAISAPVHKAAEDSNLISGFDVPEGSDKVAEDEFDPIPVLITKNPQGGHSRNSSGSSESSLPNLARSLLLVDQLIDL

Structure (SMILES) | IC50 [nM]
CC(C)C[C@](C)(N)COc1ccc(-c2ccnn3ccnc23)cc1 [Example 281, (S)-1-(4-(imidazo[1,2-b]pyridazin-8-yl)phenoxy)-2,4-dimethylpentan-2-amine] | 3.4
Cc1nc2c(-c3ccc(OC[C@@](C)(N)CC(C)C)c(Cl)c3)ccnc2[nH]1 [Example 282, (S)-1-(2-chloro-4-(2-methyl-3H-imidazo[4,5-b]pyridin-7-yl)phenoxy)-2,4-dimethylpentan-2-amine] | 36
CC(C)C[C@](C)(N)COc1ccc(-c2ccnn3ccnc23)cc1C(F)(F)F [Example 283, (S)-1-(4-(imidazo[1,2-b]pyridazin-8-yl)-2-(trifluoromethyl)phenoxy)-2,4-dimethylpentan-2-amine] | 0.4
CC(C)C[C@](C)(N)COc1ccc(-c2ccnc3[nH]ncc23)cc1Cl [Example 284, (S)-1-(2-chloro-4-(1H-pyrazolo[3,4-b]pyridin-4-yl)phenoxy)-2,4-dimethylpentan-2-amine] | 0.6
CC(C)C[C@](C)(N)COc1ccc(-c2cc(Cl)nn3ccnc23)cc1C#N [Example 286, (S)-2-((2-amino-2,4-dimethylpentyl)oxy)-5-(6-chloroimidazo[1,2-b]pyridazin-8-yl)benzonitrile] | 47
CC(C)C[C@](C)(N)COc1ccc(-c2ccnn3ccnc23)cc1C#N [Example 287, (S)-2-((2-amino-2,4-dimethylpentyl)oxy)-5-(imidazo[1,2-b]pyridazin-8-yl)benzonitrile] | 0.5
CC(C)C[C@](C)(N)COc1ccc(-c2ccnc3[nH]ncc23)cc1F [Example 288, (S)-1-(2-fluoro-4-(1H-pyrazolo[3,4-b]pyridin-4-yl)phenoxy)-2,4-dimethylpentan-2-amine] | 0.9
CC(C)C[C@](C)(N)COc1ccc(-c2ccnc3c2cnn3C)cc1F [Example 289, (5)-1-(2-fluoro-4-(1-methyl-1H-pyrazolo[3,4-b]pyridin-4-yl)phenoxy)-2,4-dimethylpentan-2-amine] | 58
Cc1nc2c(-c3ccc(OC[C@@](C)(N)CC(C)C)c(C(F)(F)F)c3)ccnc2[nH]1 [Example 291, (S)-2,4-dimethyl-1-(4-(2-methyl-3H-imidazo[4,5-b]pyridin-7-yl)-2-(trifluoromethyl)phenoxy)pentan-2-amine] | 34
CC(C)C[C@](C)(N)COc1ccc(-c2ccnc3[nH]ncc23)cc1C(F)(F)F [Example 292, (S)-1-(4-(1H-pyrazolo[3,4-b]pyridin-4-yl)-2-(trifluoromethyl)phenoxy)-2,4-dimethylpentan-2-amine] | 0.4
Cc1nc2c(-c3ccc(OC[C@@](C)(N)CC(C)C)c(C#N)c3)ccnc2[nH]1 [Example 293, (S)-2-((2-amino-2,4-dimethylpentyl)oxy)-5-(2-methyl-3H-imidazo[4,5-b]pyridin-7-yl)benzonitrile] | 14
Cc1nc2c(-c3ccc(OC[C@@](C)(N)CC(C)C)c(C)c3)ccnc2[nH]1 [Example 294, (S)-2,4-dimethyl-1-(2-methyl-4-(2-methyl-3H-imidazo[4,5-b]pyridin-7-yl)phenoxy)pentan-2-amine] | 120
COCc1nc2c(-c3ccc(OC[C@@](C)(N)CC(C)C)c(C(F)(F)F)c3)ccnc2[nH]1 [Example 295, (S)-1-(4-(2-(methoxymethyl)-3H-imidazo[4,5-b]pyridin-7-yl)-2-(trifluoromethyl)phenoxy)-2,4-dimethylpentan-2-amine] | 22
COCc1nc2c(-c3ccc(OC[C@@](C)(N)CC(C)C)c(C)c3)ccnc2[nH]1 [Example 296, (S)-1-(4-(2-(methoxymethyl)-3H-imidazo[4,5-b]pyridin-7-yl)-2-methylphenoxy)-2,4-dimethylpentan-2-amine] | 132
CC(C)C[C@](C)(N)COc1ccc(-c2ccnc3c2CC(=O)N3)cc1C#N [Example 302, (S)-2-((2-amino-2,4-dimethylpentyl)oxy)-5-(2-oxo-2,3-dihydro-1H-pyrrolo[2,3-b]pyridin-4-yl)benzonitrile] | 5.3
CC(C)C[C@](C)(N)COc1ccc(-c2ccnc3c2CC(=O)N3)cc1C(F)(F)F [Example 303, (S)-4-(4-((2-amino-2,4-dimethylpentyl)oxy)-3-(trifluoromethyl)phenyl)-1H-pyrrolo[2,3-b]pyridin-2(3H)-one] | 0.6
Cc1nccc(-c2ccc(OCC(C)(C)N)c(C)n2)n1 [Example 321, 2-methyl-1-((2-methyl-6-(2-methylpyrimidin-4-yl)pyridin-3-yl)oxy)propan-2-amine] | 162
CC(C)C[C@](C)(N)COc1ccc(-c2ccnc3ccnn23)nc1C(F)F [Example 322, (S)-1-((2-(difluoromethyl)-6-(pyrazolo[1,5-a]pyrimidin-7-yl)pyridin-3-yl)oxy)-2,4-dimethylpentan-2-amine] | 0.4
CC(C)C[C@](C)(N)COc1ccc(-c2cnn3cccnc23)cc1Cl [Example 332] | 94
Cc1cc(-c2cnn3cccnc23)ccc1OC[C@@](C)(N)CC(C)C [Example 333] | 99
CC(C)C[C@](C)(N)COc1ccc(-c2ccnc(NC3CCC(F)C3)c2)cc1Cl (stereo partly drawn) [Example 334, 4-(4-(((S)-2-amino-2,4-dimethylpentyl)oxy)-3-chlorophenyl)-N-(3-fluorocyclopentyl)pyridin-2-amine] | 15
CC(C)C[C@](C)(N)COc1ccc(-c2ccnc3cc(C(F)(F)F)nn23)cc1F [Example 335, (S)-1-(2-fluoro-4-(2-(trifluoromethyl)pyrazolo[1,5-a]pyrimidin-7-yl)phenoxy)-2,4-dimethylpentan-2-amine] | 262
CC(C)C[C@](C)(N)COc1ccc(-c2ccnc3cc(C(F)(F)F)nn23)cc1Cl [Example 336, (S)-1-(2-chloro-4-(2-(trifluoromethyl)pyrazolo[1,5-a]pyrimidin-7-yl)phenoxy)-2,4-dimethylpentan-2-amine] | 15
CC(C)C[C@](C)(N)COc1ccc(-c2ccnc3ccnn23)c2scnc12 [Example 341, (S)-2,4-dimethyl-1-((7-(pyrazolo[1,5-a]pyrimidin-7-yl)benzo[d]thiazol-4-yl)oxy)pentan-2-amine] | 212
Cc1nccc(-c2ccc(OC[C@@](C)(N)CC(C)C)c3ncsc23)n1 [Example 342, (S)-2,4-dimethyl-1-((7-(2-methylpyrimidin-4-yl)benzo[d]thiazol-4-yl)oxy)pentan-2-amine] | 39
CC(C)C[C@](C)(N)COc1ccc(-c2ccnc(NC3CCOC3)c2)cc1Cl (stereo partly drawn) [Example 345, 4-(4-(((S)-2-amino-2,4-dimethylpentyl)oxy)-3-chlorophenyl)-N-(tetrahydrofuran-3-yl)pyridin-2-amine] | 5.2
Cc1cc(-c2ccnc(NC3CCOC3)c2)ccc1OC[C@@](C)(N)CC(C)C (stereo partly drawn) [Example 346, 4-(4-(((S)-2-amino-2,4-dimethylpentyl)oxy)-3-methylphenyl)-N-(tetrahydrofuran-3-yl)pyridin-2-amine] | 23
Cc1nccc(-c2cnc(OCC3(N)CCC3)c(C)c2)n1 [Example 347, 1-(((3-methyl-5-(2-methylpyrimidin-4-yl)pyridin-2-yl)oxy)methyl)cyclobutanamine] | 964
CC(C)C[C@](C)(N)COc1ccc(-c2ccnc3ccnn23)cc1C(F)F [Example 351, (S)-1-(2-(difluoromethyl)-4-(pyrazolo[1,5-a]pyrimidin-7-yl)phenoxy)-2,4-dimethylpentan-2-amine] | 0.4
